Bridge positions count the residues as written; N and C are the ends. Square brackets hold non-standard residues; d marks the D form. Ends that are not written are not given here. Peptide text beside a SMILES is read from it. R8 = C=CCCCCCC[C@@](C)(N)C(=O)O; S5 = C=CCCC[C@](C)(N)C(=O)O; Nle = CCCC[C@H](N)C(=O)O
How the values were obtained:
human red blood cells = format: cell-based; conditions: red cells of human, 1 h, 25
Procedure, shortened: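 Washed human RBCs as 1% (v/v) suspension in phosphate-buffered saline incubated 1 h at 37° C with serially diluted peptides. Hemoglobin release in supernatant measured spectrophotometrically (570 nm), % hemolysis relative to untreated and 1% Triton-X100 controls; MHC defined as concentration giving less than 1% release.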

P. aeruginosa = format: cell-based, Pseudomonas aeruginosa
Procedure, shortened: (§1)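 MIC read as the minimum peptide concentration showing no visible growth after 20-24 hours at 37° C. Cultures were grown overnight, then regrown several hours before testing. Medium was MHB refined by anion exchange to strip polyanions; final inoculum 5×10^5 CFU/ml.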

B. cereus = format: cell-based, Bacillus cereus
Procedure, shortened: as §1

E. coli = format: cell-based, Escherichia coli
Procedure, shortened: as §1

S. aureus = format: cell-based, Staphylococcus aureus
Procedure, shortened: as §1

| Compound | % Hemolysis at 25 μg/ml (human red blood cells) [%] | MIC P. aeruginosa (P. aeruginosa) [µg/mL] | MIC B. cereus (B. cereus) [µg/mL] | MIC E. coli (E. coli) [µg/mL] | MIC S. aureus (S. aureus) [µg/mL] |
| --- | --- | --- | --- | --- | --- |
| GWGSFFKKAAHVGKHVGKAALTHYL-NH2 [Pleurocidin-NH2, reference compound] | 0.5 | 3.1 | 6.2 | 3.1 | 6.2 |
| CCCC[C@@H]1NC(=O)[C@H]([C@@H](C)CC)NC(=O)[C@H](CCC(=O)O)NC(=O)[C@@](C)(NC(=O)[C@@H](NC(=O)[C@H](Cc2ccccc2)NC(=O)[C@H](C)NC(=O)[C@H](CCCCN)NC(=O)CNC(=O)[C@H](Cc2ccccc2)NC(=O)[C@H](CCCCN)NC(=O)[C@H](CCCCN)NC(=O)[C@H](C)NC(=O)[C@H](CO)NC(=O)[C@H](Cc2c[nH]cn2)NC(=O)[C@H](CC(C)C)NC(=O)[C@H](Cc2ccccc2)NC(=O)[C@H](CCCCN)NC(=O)CNC(=O)[C@@H](NC(=O)CN)[C@@H](C)CC)C(C)C)CCCC=CCCC[C@@](C)(C(=O)N[C@@H](CO)C(N)=O)NC1=O [Mag(i + 4)17] (H-GIGKFLHSAKKFGKAFV[S5]EI[Nle][S5]S-NH2; staple 18-22) | 56.0 | 6.2 | 1.6 | 1.6 | 3.1 |
| CCCC[C@H](NC(=O)[C@@H](NC(=O)[C@H](CCC(=O)O)NC(=O)CNC(=O)[C@@H](NC(=O)[C@H](Cc1ccccc1)NC(=O)[C@H](C)NC(=O)[C@H](CCCCN)NC(=O)CNC(=O)[C@H](Cc1ccccc1)NC(=O)[C@H](CCCCN)NC(=O)[C@H](CCCCN)NC(=O)[C@H](C)NC(=O)[C@]1(C)CCCC=CCCC[C@](C)(NC(=O)CNC(=O)[C@@H](NC(=O)CN)[C@@H](C)CC)C(=O)N[C@@H](Cc2ccccc2)C(=O)N[C@@H](CC(C)C)C(=O)N[C@@H](Cc2c[nH]cn2)C(=O)N1)C(C)C)[C@@H](C)CC)C(=O)N[C@@H](CC(N)=O)C(=O)N[C@@H](CO)C(N)=O [Mag(i + 4)3] (H-GIG[S5]FLH[S5]AKKFGKAFVGEI[Nle]NS-NH2; staple 4-8) | 41.6 | 25 | 12.5 | 6.2 | 6.2 |
| CCCC[C@H](NC(=O)[C@@H](NC(=O)[C@H](CCC(=O)O)NC(=O)CNC(=O)[C@@H](NC(=O)[C@H](Cc1ccccc1)NC(=O)[C@H](C)NC(=O)[C@H](CCCCN)NC(=O)CNC(=O)[C@H](Cc1ccccc1)NC(=O)[C@H](CCCCN)NC(=O)[C@H](CCCCN)NC(=O)[C@]1(C)CCCC=CCCCCCC[C@@](C)(NC(=O)CN)C(=O)NCC(=O)N[C@@H](CCCCN)C(=O)N[C@@H](Cc2ccccc2)C(=O)N[C@@H](CC(C)C)C(=O)N[C@@H](Cc2c[nH]cn2)C(=O)N[C@@H](CO)C(=O)N1)C(C)C)[C@@H](C)CC)C(=O)N[C@@H](CC(N)=O)C(=O)N[C@@H](CO)C(N)=O [Mag(i + 7)1] (H-G[R8]GKFLHS[S5]KKFGKAFVGEI[Nle]NS-NH2; staple 2-9 (inferred); N-terminus and C-terminus assumed) | 49.9 | 3.1 | 3.1 | 3.1 | 12.5 |
| CCCC[C@H](NC(=O)[C@]1(C)CCCC=CCCC[C@](C)(NC(=O)[C@H](CCCCN)NC(=O)[C@H](CCCCN)NC(=O)CNC(=O)[C@H](Cc2ccccc2)NC(=O)[C@H](CCCCN)NC(=O)[C@H](CCCCN)NC(=O)[C@H](C)NC(=O)[C@H](CO)NC(=O)[C@H](Cc2c[nH]cn2)NC(=O)[C@H](CC(C)C)NC(=O)[C@H](Cc2ccccc2)NC(=O)[C@H](CCCCN)NC(=O)CNC(=O)[C@@H](NC(=O)CN)[C@@H](C)CC)C(=O)N[C@@H](C(C)C)C(=O)NCC(=O)N[C@@H](CCC(=O)O)C(=O)N1)C(=O)N[C@@H](CC(N)=O)C(=O)N[C@@H](CO)C(N)=O [Mag(i + 4)15(A15K), GIGKFLHSAKKFGKKXVGEXBNS] (H-GIGKFLHSAKKFGKK[S5]VGE[S5][Nle]NS-NH2; staple 16-20) | 4.1 | 3.1 | 6.2 | 3.1 | 25 |
| CCCC[C@H](NC(=O)[C@]1(C)CCCC=CCCC[C@](C)(NC(=O)[C@H](C)NC(=O)[C@H](CCCCN)NC(=O)CNC(=O)[C@H](CCCCN)NC(=O)[C@H](CCCCN)NC(=O)[C@H](CCCCN)NC(=O)[C@H](C)NC(=O)[C@H](CO)NC(=O)[C@H](Cc2c[nH]cn2)NC(=O)[C@H](CC(C)C)NC(=O)[C@H](Cc2ccccc2)NC(=O)[C@H](CCCCN)NC(=O)CNC(=O)[C@@H](NC(=O)CN)[C@@H](C)CC)C(=O)N[C@@H](C(C)C)C(=O)NCC(=O)N[C@@H](CCC(=O)O)C(=O)N1)C(=O)N[C@@H](CC(N)=O)C(=O)N[C@@H](CO)C(N)=O [Mag(i + 4)15(F12K), GIGKFLHSAKKKGKAXVGEXBNS] (H-GIGKFLHSAKKKGKA[S5]VGE[S5][Nle]NS-NH2; staple 16-20) | 2.0 | 12.5 | >50 | 3.1 | >50 |
| CCCC[C@H](NC(=O)[C@]1(C)CCCC=CCCC[C@](C)(NC(=O)[C@H](CCC(=O)O)NC(=O)[C@H](CCCCN)NC(=O)CNC(=O)[C@H](Cc2ccccc2)NC(=O)[C@H](CCCCN)NC(=O)[C@H](CCCCN)NC(=O)[C@H](C)NC(=O)[C@H](CO)NC(=O)[C@H](Cc2c[nH]cn2)NC(=O)[C@H](CC(C)C)NC(=O)[C@H](Cc2ccccc2)NC(=O)[C@H](CCCCN)NC(=O)CNC(=O)[C@@H](NC(=O)CN)[C@@H](C)CC)C(=O)N[C@@H](C(C)C)C(=O)NCC(=O)N[C@@H](CCC(=O)O)C(=O)N1)C(=O)N[C@@H](CC(N)=O)C(=O)N[C@@H](CO)C(N)=O [Mag(i + 4)15(A15E), GIGKFLHSAKKFGKEXVGEXBNS] (H-GIGKFLHSAKKFGKE[S5]VGE[S5][Nle]NS-NH2; staple 16-20) | 3.8 | 25 | 25 | 3.1 | 50 |
| CC[C@H](C)[C@H](NC(=O)CN)C(=O)NCC(=O)N[C@@H](CCCCN)C(=O)N[C@@H](Cc1ccccc1)C(=O)N[C@@H](CC(C)C)C(=O)N[C@@H](Cc1c[nH]cn1)C(=O)N[C@@H](CO)C(=O)N[C@@H](C)C(=O)N[C@@H](CCCCN)C(=O)N[C@@H](CCCCN)C(=O)N[C@@H](Cc1ccccc1)C(=O)NCC(=O)N[C@@H](CCCCN)C(=O)N[C@@H](C)C(=O)N[C@@]1(C)CCCC=CCCC[C@@](C)(C(=O)N[C@@H](CCC(=O)O)C(=O)N[C@@H](CC(N)=O)C(=O)N[C@@H](CO)C(N)=O)NC(=O)[C@H](CCC(=O)O)NC(=O)CNC(=O)[C@H](C(C)C)NC1=O [Mag(i + 4)15(B21E), GIGKFLHSAKKFGKAXVGEXENS] (H-GIGKFLHSAKKFGKA[S5]VGE[S5]ENS-NH2; staple 16-20) | 0.8 | >50 | >50 | 25 | >50 |
| CCCC[C@@H]1NC(=O)[C@H]([C@@H](C)CC)NC(=O)[C@@](C)(NC(=O)CNC(=O)[C@@H](NC(=O)[C@H](Cc2ccccc2)NC(=O)[C@H](C)NC(=O)[C@H](CCCCN)NC(=O)CNC(=O)[C@H](Cc2ccccc2)NC(=O)[C@H](CCCCN)NC(=O)[C@H](CCCCN)NC(=O)[C@H](C)NC(=O)[C@H](CO)NC(=O)[C@H](Cc2c[nH]cn2)NC(=O)[C@H](CC(C)C)NC(=O)[C@H](Cc2ccccc2)NC(=O)[C@H](CCCCN)NC(=O)CNC(=O)[C@@H](NC(=O)CN)[C@@H](C)CC)C(C)C)CCCC=CCCC[C@@](C)(C(N)=O)NC(=O)[C@H](CC(N)=O)NC1=O [Mag(i + 4)18, GIGKFLHSAKKFGKAFVGXIBNX] (H-GIGKFLHSAKKFGKAFVG[S5]I[Nle]N[S5]-NH2; staple 19-23) | 96.5 | 3.1 | 3.1 | 1.6 | 1.6 |

— patent publication US20200231638A1, “STABILIZED ANTI-MICROBIAL PEPTIDES” (priority 2015, published 2020)
